From patent US20240270762A1, “PENICILLIN-BINDING PROTEIN INHIBITORS” (priority 2021, published 2024)
≈ marks a conversion by molar mass, not a printed value.

Legend:
P. aeruginosa CDC-0090 = assay: microbe, parasite or virus in culture; format: cell-based; details: Pseudomonas aeruginosa, CDC0090, read-out: Minimum inhibitory concentration, P. aeruginosa CDC-0090
P. aeruginosa CDC-0054 = assay: microbe, parasite or virus in culture; format: cell-based; details: Pseudomonas aeruginosa, CDC0054, read-out: Minimum inhibitory concentration, P. aeruginosa CDC-0054
[1] = test system: P. aeruginosa (ΔmexAB-oprM); assay: Broth microdilution MIC in iron-depleted CAMHB (IDM); format: cell-based; details: Pseudomonas aeruginosa; iron-depleted CAMHB (IDM); […]; read-out: Minimum inhibitory concentration, P. aeruginosa ΔmexAB-oprM
P. aeruginosa CDC-0095 = assay: microbe, parasite or virus in culture; format: cell-based; details: Pseudomonas aeruginosa, CDC0095, read-out: Minimum inhibitory concentration, P. aeruginosa CDC-0095
[2] = biological target: T1, PBP3 from Pseudomonas aeruginosa (PAO1) (Pseudomonas aeruginosa, UniProt G3XD46); assay: Bocillin-FL fluorescence polarization competition binding, P. aeruginosa PBP3; details: Binding affinity to P. aeruginosa PBP3; fluorescence polarization competition binding assay using Bocillin-FL; read-out: P. aeruginosa PBP3 Potency
T1 construct: made in house
Procedure, shortened: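 Purified PBPs pre-incubated with inhibitor (E. coli PBP3 1.5 μM, 30 min; P. aeruginosa PBP3 0.75 μM, A. baumannii PBP1a 1 μM and PBP3 0.2 μM, 15 min), then Bocillin-FL 0.1 μM (0.05 μM for PBP1a) added; FP read up to 60 min. EC50 = concentration halving bound Bocillin-FL.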

[3] = test system: B. thailandensis ATCC 700388; assay: microbe, parasite or virus in culture; format: cell-based; details: Burkholderia thailandensis, ATCC700388, read-out: Minimum inhibitory concentration (MIC), B. thailandensis ATCC 700388

T1 sequence (G3XD46 whole entry): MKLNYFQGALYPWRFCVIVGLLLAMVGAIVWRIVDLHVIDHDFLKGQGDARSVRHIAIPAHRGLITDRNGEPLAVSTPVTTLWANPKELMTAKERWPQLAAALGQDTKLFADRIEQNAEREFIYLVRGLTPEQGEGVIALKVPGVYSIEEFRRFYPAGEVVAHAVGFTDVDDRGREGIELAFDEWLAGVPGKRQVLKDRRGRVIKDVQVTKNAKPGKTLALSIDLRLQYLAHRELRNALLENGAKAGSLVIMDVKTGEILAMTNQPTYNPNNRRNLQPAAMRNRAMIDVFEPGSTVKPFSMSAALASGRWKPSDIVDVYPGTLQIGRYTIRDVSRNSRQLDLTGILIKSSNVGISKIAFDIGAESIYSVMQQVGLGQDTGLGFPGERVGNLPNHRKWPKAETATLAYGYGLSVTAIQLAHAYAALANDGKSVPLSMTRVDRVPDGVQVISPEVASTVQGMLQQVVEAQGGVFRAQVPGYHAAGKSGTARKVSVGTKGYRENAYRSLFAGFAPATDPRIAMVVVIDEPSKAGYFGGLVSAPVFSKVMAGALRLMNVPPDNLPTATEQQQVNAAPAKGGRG

Row | Compound | MIC (P. aeruginosa CDC-0090) [µg/mL] | MIC (P. aeruginosa CDC-0054) [µg/mL] | MIC [1] [µg/mL] | MIC (P. aeruginosa CDC-0095) [µg/mL] | IC50 [2] [µM] | MIC [3] [µg/mL]
1 | O=C(O)c1c(F)ccc2c1OB(O)[C@@H](NC(=O)[C@H](NC(=O)N1CCN(C3CCN(C(=O)Nc4cccc(O)c4)CC3)C1=O)c1cc(F)c(O)c(O)c1Cl)C2 [Example 445, (R)-3-((R)-2-(2-chloro-5-fluoro-3,4-dihydroxyphenyl)-2-(3-(1-((3-hydroxyphenyl)carbamoyl)piperidin-4-yl)-2-oxoimidazolidine-1-carboxamido)acetamido)-7-fluoro-2-hydroxy-3,4-dihydro-2H-benzo[e][1,2]oxaborinine-8-carboxylic acid] | < 1 | < 1 | < 1 | < 1 | < 10 | < 1
2 | O=C(O)c1c(F)ccc2c1OB(O)[C@@H](NC(=O)[C@H](NC(=O)N1CCN(C3CCN(C(=O)Nc4ccc(F)c(O)c4)CC3)C1=O)c1cc(F)c(O)c(O)c1Cl)C2 (single isomer, unassigned) [Example 449] | < 1 | < 1 | < 1 | < 1 | < 10 | < 1
3 | O=C(O)c1c(F)ccc2c1OB(O)[C@@H](NC(=O)[C@H](NC(=O)N1CCN(C3CCN(C(=O)Nc4cc(O)ccc4F)CC3)C1=O)c1cc(F)c(O)c(O)c1Cl)C2 (single isomer, unassigned) [Example 451] | < 1 | < 1 | < 1 | < 1 | < 10 | < 1
4 | O=C(O)c1c(F)ccc2c1OB(O)[C@@H](NC(=O)[C@H](NC(=O)N1CCN(C3CCN(C(=O)c4cc(O)ccc4Cl)CC3)C1=O)c1cc(F)c(O)c(O)c1Cl)C2 (single isomer, unassigned) [Example 434] | < 1 | < 1 | < 1 | < 1 | < 10 | < 1
5 | O=C(O)c1c(F)ccc2c1OB(O)[C@@H](NC(=O)[C@H](NC(=O)N1CCN(C3CCN(C(=O)c4cc(F)c(F)c(O)c4F)CC3)C1=O)c1cc(F)c(O)c(O)c1Cl)C2 (single isomer, unassigned) [Example 441] | < 1 | < 1 | < 1 | < 1 | < 10 | < 1
6 | O=C(O)c1c(F)ccc2c1OB(O)[C@@H](NC(=O)[C@H](NC(=O)N1CCN(C3CCN(C(=O)c4cc(O)cc(F)c4)CC3)C1=O)c1cc(F)c(O)c(O)c1Cl)C2 (single isomer, unassigned) [Example 436] | < 1 | < 1 | < 1 | < 1 | < 10 | < 1
7 | O=C(NCCS(=O)(=O)N1CCN(C(=O)N[C@@H](C(=O)N[C@H]2Cc3ccc(F)c(C(=O)O)c3OB2O)c2ccc(P(=O)(O)O)cc2)C1=O)c1ccc(O)c(O)c1Cl (single isomer, unassigned) [Example 168] | 32 to 64 (≈ 38.7 to 77.3 µM) | 32 to 64 (≈ 38.7 to 77.3 µM) | 8 to 16 (≈ 9.66 to 19.3 µM) | 8 to 16 (≈ 9.66 to 19.3 µM) | < 10 | < 1
8 | O=C(O)c1c(F)ccc2c1OB(O)[C@@H](NC(=O)[C@H](NC(=O)N1CCN(C3CCN(C(=O)Nc4cc(O)ccc4Cl)CC3)C1=O)c1cc(F)c(O)c(O)c1Cl)C2 (single isomer, unassigned) [Example 448] | < 1 | < 1 | < 1 | < 1 | < 10 | < 1
9 | O=C(O)c1c(F)ccc2c1OB(O)[C@@H](NC(=O)[C@H](NC(=O)N1CCN(C3CCN(C(=O)Nc4c(F)ccc(O)c4Cl)CC3)C1=O)c1cc(F)c(O)c(O)c1Cl)C2 (single isomer, unassigned) [Example 455] | < 1 | < 1 | < 1 | < 1 | < 10 | < 1
10 | O=C(O)c1c(F)ccc2c1OB(O)[C@@H](NC(=O)[C@H](NC(=O)N1CCN(C3CCN(C(=O)Nc4cccc(O)c4F)CC3)C1=O)c1cc(F)c(O)c(O)c1Cl)C2 (single isomer, unassigned) [Example 446] | < 1 | < 1 | < 1 | < 1 | < 10 | < 1
11 | O=C(O)c1c(F)ccc2c1OB(O)[C@@H](NC(=O)[C@H](NC(=O)N1CCN(Cc3ccc(O)c(O)c3Cl)C(=O)C1=O)c1ccc(P(=O)(O)O)cc1)C2 (single isomer, unassigned) [Example 160] | < 1 | < 1 | < 1 | < 1 | < 10 | < 1
12 | O=C(O)c1c(F)ccc2c1OB(O)[C@@H](NC(=O)[C@H](NC(=O)N1CCN(C3CCN(C(=O)c4cccnc4)CC3)C1=O)c1cc(F)c(O)c(O)c1Cl)C2 [Example 460, (R)-3-((R)-2-(2-chloro-5-fluoro-3,4-dihydroxyphenyl)-2-(3-(1-nicotinoylpiperidin-4-yl)-2-oxoimidazolidine-1-carboxamido)acetamido)-7-fluoro-2-hydroxy-3,4-dihydro-2H-benzo[e][1,2]oxaborinine-8-carboxylic acid] | < 1 | < 1 | < 1 | < 1 | < 10 | < 1
13 | O=C(O)c1c(F)ccc2c1OB(O)[C@@H](NC(=O)C(NC(=O)N1CCN(C3CCN(C(=O)Nc4c(F)ccc(O)c4F)CC3)C(=O)C1=O)c1cc(F)c(O)c(O)c1Cl)C2 (stereo partly drawn) [Example 487, (3R)-3-(2-(2-chloro-5-fluoro-3,4-dihydroxyphenyl)-2-(4-(1-((2,6-difluoro-3-hydroxyphenyl)carbamoyl)piperidin-4-yl)-2,3-dioxopiperazine-1-carboxamido)acetamido)-7-fluoro-2-hydroxy-3,4-dihydro-2H-benzo[e][1,2]oxaborinine-8-carboxylic acid] | 2 to 4 (≈ 2.39 to 4.78 µM) | < 1 | < 1 | < 1 | < 10 | < 1
14 | O=C(O)c1c(F)ccc2c1OB(O)[C@@H](NC(=O)[C@H](NC(=O)N1CCN(Cc3ccc(O)c(O)c3Cl)C(=O)C1=O)c1ccc(P(=O)(O)O)c(F)c1F)C2 [Example 166, (R)-3-((R)-2-(4-(2-chloro-3,4-dihydroxybenzyl)-2,3-dioxopiperazine-1-carboxamido)-2-(2,3-difluoro-4-phosphonophenyl)acetamido)-7-fluoro-2-hydroxy-3,4-dihydro-2H-benzo[e][1,2]oxaborinine-8-carboxylic acid] | 2 to 4 (≈ 2.59 to 5.19 µM) | < 1 | < 1 | < 1 | < 10 | < 1
15 | O=C(O)c1c(F)ccc2c1OB(O)[C@@H](NC(=O)[C@H](NC(=O)N1CCN(C3CCN(Cc4cccnc4)CC3)C1=O)c1cc(F)c(O)c(O)c1Cl)C2 [Example 492, (R)-3-((R)-2-(2-chloro-5-fluoro-3,4-dihydroxyphenyl)-2-(2-oxo-3-(1-(pyridin-3-ylmethyl)piperidin-4-yl)imidazolidine-1-carboxamido)acetamido)-7-fluoro-2-hydroxy-3,4-dihydro-2H-benzo[e][1,2]oxaborinine-8-carboxylic acid] | < 1 | < 1 | < 1 | 2 to 4 (≈ 2.74 to 5.49 µM) | < 10 | < 1
